According to EP1192860B1, “UVA-tracer containing disinfectant and method of determining the degree of dilution of disinfectants using UVA-tracers” (Air Liquide Santé (International), priority 2000, dated 2002):
Entries after “also recorded” stand apart in the source; their conditions may differ.

Columns and labels:
Assay type in all cases: physicochemical
[1] = Stability investigations of UV-A-tracer-containing concentrates (optically visible changes on storage); conditions: clear glass bottles, room temperature, window-sill vs dark, 3 months
Description: Since the UV-A-tracers are to be used for determining the active ingredient concentrations of disinfectant solutions, the UV-A-tracer-containing concentrates must be sufficiently stable throughout the entire storage life of the commercially available disinfectant concentrates (approximately 3 years). In order to investigate the stability of the UV-A-tracers, preparations 1 to 5 to which UV-A-tracers have been added were stored in clear glass bottles at room temperature firstly on a window-sill and secondly as a reference in the dark. Over a period of 3 months, the optically visible changes of the UV-A-tracer-containing preparations stored under varying conditions were observed and, at regular time intervals, 1% dilutions of these UV-A-tracer-containing preparations in water were investigated spectroscopically.

[2] = Absorption spectrophotometric stability investigations of the incorporated UV-A-tracers
Procedure: The long-term stability of combinations of concentrate and UV-A-tracers in the dark and under the effect of light was investigated by reference to UV spectra. The combinations below were used (Table 7): Table 7
Following storage at room temperature for 4, 8 or 12 weeks in the dark or in daylight, 1% strength dilutions of each of the preparations in water were prepared.

[3] = Solubility of selected UV-A-tracers in selected concentrates; conditions: for Solubilities of selected UV-A-tracers in concentrates and optically visible changes compared with the original concentrate: 0.2 g UV-A-tracer in 100 g concentrate, stirred 3 hours; for Solubility in the concentrates: all five concentrates (preparations 1 to 5)
Description: Solubilities of selected UV-A-tracers in concentrates containing various active ingredient combinations (preparations 1 to 5) and optically visible changes compared with the original concentrate, "+" UV-A-tracer soluble in 100 g of preparation to at least 0.2 g, "y" the originally colourless concentrate turns yellowish as a result of the incorporation of the UV-A-tracer.

[4] = Prep.4 (Combinations of aldehydes)
[5] = Prep.5 (Quat + phenoxypropanols)
[6] = amine-containing preparations (1 and 2)

Structure (SMILES) | Changes within the observation period ([1]; in Preparation 1) | Changes within the observation period ([1]; in Preparation 2) | Changes within the observation period ([1]; in Preparation 3) | Changes within the observation period ([1]; in Preparation 4) | Changes within the observation period ([1]; in Preparation 5) | Divergence of the absorptions between sample stored in the dark and sample exposed to daylight ([2]; in preparation 5, after 12 weeks, 1% strength dilutions in water) | Odour of the sample ([2]; in preparation 5, exposed to daylight, after 12 weeks) | Changes of the sample ([2]; in preparation 5, stored in the dark) | Solubilities of selected UV-A-tracers in concentrates and optically visible changes compared with the original concentrate ([3]; Prep.1 (Quat + alkylamine)) | Solubilities of selected UV-A-tracers in concentrates and optically visible changes compared with the original concentrate ([3]; Prep.2 (Quat + GuAc)) | Solubilities of selected UV-A-tracers in concentrates and optically visible changes compared with the original concentrate ([3]; Prep.3 (Quat + org. acid)) | Solubilities of selected UV-A-tracers in concentrates and optically visible changes compared with the original concentrate [3, 4] | Solubilities of selected UV-A-tracers in concentrates and optically visible changes compared with the original concentrate [3, 5] | Solubility in the concentrates [3] | Colour change on incorporation of the UV-A-tracer ([3]; all preparations) | Colour change on incorporation of the UV-A-tracer [3, 6] | Decomposition of the UV-A-tracer ([2]; preparations 3, 4 and 5, storage in the dark and in daylight)
CC1CCC(C(C)C)C(OC(=O)c2ccccc2N)C1 (stereo not drawn) [Menthyl anthranilate, Menthyl o-aminobenzoate] | slight yellowish tinge; also recorded: slight yellow coloration | slight yellowish tinge; also recorded: slight yellow coloration | intensive yellow coloration | pale yellow-green colour | from green to yellow | significant divergence | intensive unpleasant odour | does not display any perceptible changes | + (UV-A-tracer soluble in 100 g of preparation to at least 0.2 g) | + (UV-A-tracer soluble in 100 g of preparation to at least 0.2 g) | + (UV-A-tracer soluble in 100 g of preparation to at least 0.2 g) | + (UV-A-tracer soluble in 100 g of preparation to at least 0.2 g) | + (UV-A-tracer soluble in 100 g of preparation to at least 0.2 g) | dissolves in all preparations | without visible colour changes | – | –
COc1cc(O)c(C(=O)c2cc(S(=O)(=O)[O-])c(OC)cc2O)cc1S(=O)(=O)[O-].[Na+].[Na+] [Benzophenone-9, 2,2'-dihydroxy-4,4'-dimethoxybenzophenone-5,5'-disodium sulphonate] | – | – | – | – | – | – | – | – | +y | +y | +y | + (UV-A-tracer soluble in 100 g of preparation to at least 0.2 g) | + (UV-A-tracer soluble in 100 g of preparation to at least 0.2 g) | – | – | intensive yellow coloration | –
COc1ccc(C(=O)c2ccccc2)c(O)c1 [Benzophenone-3, 2-Hydroxy-4-methoxybenzophenone] | – | – | does not display changes of any kind and none | – | – | – | – | – | +y | +y | + (UV-A-tracer soluble in 100 g of preparation to at least 0.2 g) | + (UV-A-tracer soluble in 100 g of preparation to at least 0.2 g) | + (UV-A-tracer soluble in 100 g of preparation to at least 0.2 g) | dissolves without problems | – | intensive yellow coloration | In none of the three disinfectants was decomposition of benzophenone-3 observed
COc1cc(O)c(C(=O)c2ccccc2)cc1S(=O)(=O)O [Benzophenone-4, 2-Hydroxy-4-methoxybenzophenone-5-sulphonic acid] | – | – | – | – | – | – | – | – | +y | +y | + (UV-A-tracer soluble in 100 g of preparation to at least 0.2 g) | + (UV-A-tracer soluble in 100 g of preparation to at least 0.2 g) | + (UV-A-tracer soluble in 100 g of preparation to at least 0.2 g) | – | – | intensive yellow coloration | –
COc1ccc(C(=O)c2ccc(OC)cc2O)c(O)c1 [Benzophenone-6, 2,2'-Dihydroxy-4,4'-dimethoxybenzophenone] | – | – | – | – | – | – | – | – | +y | +y | +y | + (UV-A-tracer soluble in 100 g of preparation to at least 0.2 g) | + (UV-A-tracer soluble in 100 g of preparation to at least 0.2 g) | – | – | intensive yellow coloration | –
